Experimental data from patent US9220725B2, “Cationic latex as a carrier for bioactive ingredients and methods for making and using the same” (priority 2006, dated 2015).
Read-outs that look alike come from different tables or passages of the source.

Legend:
[1] = Stability of additive during polymerization; type: physicochemical; conditions: incorporated in relatively high amounts
Excerpt: Ideally, the materials are substantially unreactive during the polymerization conditions, so they are not degraded during polymerization. In some embodiments, low levels of additive might be observed, whether due to degradation, or difficulty in extraction from the polymer latex. In any case, retention of the additive in the latex leads to retention of antifungal properties in the finished paper.
The polymerization temperature was investigated as a potential contributor to degradation, and it was kept as low as was feasible (typically <70° C.). The samples were stripped at the end of polymerization to the desired solids content.

fungal species [2] = assay: 30-III fungal test on 1"X1" chip of dried latex, growth observed after 7 days; type: cell-based; conditions: 7 day incubation
Procedure: The results observed in the G-21 study were also duplicated in a shorter (7 day incubation) fungal study (referred to herein as 30-III).
The 30-III fungal test was based on making a 1″X1″ chip of the dried latex and inoculating the fungal species directly on to the sample and then observing its growth after 7 days. This is not as rigorous a test as the G-21 test, but gave a quick indication of the efficacy of the additives.

fungal species [3] = assay: ASTM D-3273 on coated paper, increased coating thickness, spores in humidity chamber, 28 days; type: cell-based
Procedure: A second round of testing was performed using an increased coating thickness to ensure full coverage of the paper surface. The second round of testing of the coated paper samples were tested according to ASTM D-3273. In this study, the duration remained the same (28 days), but the fungal species were not directly inoculated on the surface. Rather, they were maintained in the humidity chamber as spores that would then land on the surface of the coated paper as in a real world example. The results of this study are outlined in FIG. 3.

[4] = Solubility of additives used in polymerization; type: physicochemical

Compound | antifungal performance (fungal species [2]) | antifungal performance (fungal species [3]) | Solubility ([4]; in monomer where given) | Solubility [4] | also measured
Cc1ccc(S(=O)(=O)C(I)I)cc1 [Amical AF, Diiodomethyltoluyl sulfone] | some fungal inhibition | effective | Limited |  | degradation during polymerization [1]: degraded
[Na+].[O-]c1ccccc1-c1ccccc1 [Microban P2, Sodium orthophenyl phenate] |  |  |  |  | Solubility ([4]; in water): soluble
CCCC1COC(Cn2cncn2)(c2ccc(Cl)cc2Cl)O1 (centres unmarked) [Microban PZ, Propiconazole] |  |  |  | Fairly soluble | 
CC(C)(C)C(O)(CCc1ccc(Cl)cc1)Cn1cncn1 (centres unmarked) [Microban TZ, Tebuconazole] |  |  |  | Fairly soluble | 
Oc1cc(Cl)ccc1Oc1ccc(Cl)cc1Cl [Triclosan, Chlorodiphenyl ether, reference compound] |  |  | Solid. Fairly |  | 
Zinc pyrithione [Microban Z01] | performed well | did not perform well | Insoluble in |  | 
